Data as given in ChEMBL document CHEMBL1201862, “PubChem BioAssay data set” (2004).
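How tested: cells in 96-well plates exposed to compound for 48 hours at five concentrations. GI50 is the concentration that inhibits growth by half.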 Calls of active or inactive are those of the source. Cut-off read from the data, not from the text of the source: active = GI50 up to about 1.1 µM and inactive = higher.

Legend:
Experiment in all cases: NCI anticancer screen, dose series, 48 h
EKVX = test system: EKVX
RXF 393 = test system: RXF 393
HOP-62 = test system: HOP-62
HOP-92 = test system: HOP-92
KM12 = test system: KM12
NCI-H460 = test system: NCI-H460
T47D = test system: T47D
U-251 = test system: U-251
OVCAR-5 = test system: OVCAR-5
PC-3 = test system: PC-3
Malme-3M = test system: Malme-3M
Hs-578T = test system: Hs-578T
M14 = test system: M14
NCI-H226 = test system: NCI-H226
HT-29 = test system: HT-29
NCI-H522 = test system: NCI-H522
UO-31 = test system: UO-31
CCRF-CEM = test system: CCRF-CEM
SNB-75 = test system: SNB-75

Structure (SMILES)	GI50 (EKVX)	GI50 (RXF 393)	GI50 (HOP-62)	GI50 (HOP-92)	GI50 (KM12)	GI50 (NCI-H460)	GI50 (T47D)	GI50 (U-251)	GI50 (OVCAR-5)	GI50 (PC-3)	GI50 (Malme-3M)	GI50 (Hs-578T)	GI50 (M14)	GI50 (NCI-H226)	GI50 (HT-29)	GI50 (NCI-H522)	GI50 (UO-31)	GI50 (CCRF-CEM)	GI50 (SNB-75)
N#Cc1c(O)nc2nn3c4ccc5ccccc5c4nnc3c2c1-c1ccc(Cl)cc1	3.93 µM (inactive)	2.01 µM (inactive)	3.16 µM (inactive)	2.3 µM (inactive)	2.8 µM (inactive)	2.24 µM (inactive)	0.313 µM (active)	2.12 µM (inactive)	6.24 µM (inactive)	2.43 µM (inactive)	1.93 µM (inactive)	2.76 µM (inactive)	2.38 µM (inactive)	7.14 µM (inactive)	2.94 µM (inactive)	1.5 µM (inactive)	2.38 µM (inactive)	1.56 µM (inactive)	
NNC(=O)CC(=O)Nc1ccc(S(=O)(=O)c2ccc(NC(=O)CC(=O)NN)cc2)cc1	> 100 µM (inactive)	> 100 µM (inactive)	> 100 µM (inactive)	> 100 µM (inactive)	> 100 µM (inactive)	> 100 µM (inactive)	> 100 µM (inactive)	> 100 µM (inactive)	> 100 µM (inactive)	> 100 µM (inactive)		> 100 µM (inactive)	> 100 µM (inactive)	> 100 µM (inactive)	> 100 µM (inactive)	> 100 µM (inactive)	> 100 µM (inactive)	> 100 µM (inactive)	> 100 µM (inactive)
CSc1nc(NC(C)C)c2c(n1)Sc1nc3ccccc3n1C2O (centres undefined)	11.5 µM (inactive)	3.86 µM (inactive)	6.37 µM (inactive)	89.5 µM (inactive)	3.01 µM (inactive)		4.2 µM (inactive)	3.11 µM (inactive)		1.83 µM (inactive)	1.98 µM (inactive)	2.79 µM (inactive)	5.96 µM (inactive)		3.09 µM (inactive)	2.28 µM (inactive)	5.71 µM (inactive)	1.75 µM (inactive)	4.61 µM (inactive)
Cc1ccc(S(=O)(=O)NC(=O)N[C@@H](Cc2c[nH]cn2)C(=O)O)cc1		> 100 µM (inactive)	> 100 µM (inactive)	> 100 µM (inactive)	> 100 µM (inactive)	> 100 µM (inactive)	> 100 µM (inactive)	> 100 µM (inactive)	> 100 µM (inactive)	> 100 µM (inactive)	> 100 µM (inactive)	> 100 µM (inactive)	> 100 µM (inactive)		> 100 µM (inactive)	> 100 µM (inactive)	> 100 µM (inactive)	> 100 µM (inactive)	> 100 µM (inactive)
CCOC(=O)c1cc2cc3c4c(c2oc1=O)CCCN4CCC3	12 µM (inactive)	10.4 µM (inactive)	26.2 µM (inactive)	17.1 µM (inactive)	23.8 µM (inactive)	48.3 µM (inactive)	15.2 µM (inactive)	28.8 µM (inactive)	> 100 µM (inactive)	29 µM (inactive)	49.3 µM (inactive)	25 µM (inactive)	32.3 µM (inactive)	14.7 µM (inactive)	31.8 µM (inactive)	19.4 µM (inactive)	25.9 µM (inactive)	29.4 µM (inactive)	
Cc1ccccc1OC(C)C(=O)NN1C(=O)CC(=O)N(c2ccccc2)C1=S (centres undefined)	75.7 µM (inactive)	61.4 µM (inactive)	69.2 µM (inactive)	37.3 µM (inactive)	75.5 µM (inactive)	45.8 µM (inactive)	35.3 µM (inactive)	62.7 µM (inactive)	> 100 µM (inactive)	72.1 µM (inactive)	> 100 µM (inactive)	> 100 µM (inactive)	52 µM (inactive)	41.9 µM (inactive)	76 µM (inactive)	77.4 µM (inactive)	35.8 µM (inactive)		48.3 µM (inactive)
N=C(/C=C/c1ccc(-c2cn3cc(/C=C/C(=N)N4CCCC4)ccc3n2)cc1)N1CCCC1	> 100 µM (inactive)	50.6 µM (inactive)	> 100 µM (inactive)	> 100 µM (inactive)	60.3 µM (inactive)	81.3 µM (inactive)	> 100 µM (inactive)	50.2 µM (inactive)	> 100 µM (inactive)	> 100 µM (inactive)	27 µM (inactive)	56.5 µM (inactive)	> 100 µM (inactive)	> 100 µM (inactive)		31 µM (inactive)	> 100 µM (inactive)		> 100 µM (inactive)
C/C=C1/CC(C)C(C)(O)C(=O)OCC2C(O)CN3CCC(OC1=O)C23 (centres undefined)	> 100 µM (inactive)	> 100 µM (inactive)	> 100 µM (inactive)	> 100 µM (inactive)	> 100 µM (inactive)	> 100 µM (inactive)	> 100 µM (inactive)	> 100 µM (inactive)	> 100 µM (inactive)	> 100 µM (inactive)		> 100 µM (inactive)	> 100 µM (inactive)	> 100 µM (inactive)	> 100 µM (inactive)	68.9 µM (inactive)		> 100 µM (inactive)	> 100 µM (inactive)
